Measured values reported in patent US10555919B2, “Melatonin in autoimmune disease” (The Brigham and Women's Hopsital, Inc., priority 2014, dated 2020).

Columns and labels:
[1] = test system: experimental autoimmune encephalitis (EAE) model of MS; test: EAE in mice immunized with MOG35-55, treated daily with melatonin or vehicle; type: in vivo, C57BL/6 wild-type mice; details: melatonin 5 mg/kg intraperitoneally daily
CD4+ T cells [2] = test: Co-incubation of sorted CD4+ T cells with treatment-switched dendritic cells; type: in vivo; details: CD4+ T cells from melatonin-treated mice co-incubated with splenic DCs from control mice
Experimental: To investigate if melatonin acts directly on T cells or whether it controls the T-cell response indirectly through its effects on antigen presenting cells, we co-incubated sorted CD4^+ T cells from melatonin-treated or control mice with treatment-switched dendritic cells (DCs).

[3] = test system: FoxP3+ iTregs, Th1 or Th2 cells; test: In vitro mouse differentiation of FoxP3+ iTregs, Th1 or Th2 cells; type: cell-based; details: melatonin 2 ng/ml, 3 days
Experimental: Naive CD4+ T cells (CD4+CD44loCD62LhiCD25−) were from the spleen and lymph node of C57BL/6 wild-type, MTNR1A−, NFIL3−, REV-ERBα, C/EBPα-deficient or RORα-deficient mice using magnetic beads (CD4+ T cell isolation kit, Miltenyi Biotec). All experiments were started between 7 and 9 am. Cells were activated with plate-bound anti-CD3 (2 μg/ml; 14-0031-86; eBioscience) and anti-CD28 (2 μg/ml; 16-0281-86; eBioscience). Mouse IL-27 (30 ng/ml; 34-8271; Biolegend) was added for the generation of Tr1 cells. IL-6 (30 ng/ml; 406-ML-025; R&D Systems), TGF-β1 (15 ng/ml; 130-095-067; […] C17.8; Biolegend) and anti-IFN-γ (5 μg/ml; XMG1.2; Biolegend) were added for the generation of Th17 cells. Recombinant mouse IL-23 (30 ng/ml; 1887-ML-010; R&D Systems) was added at day 2. For some experiments IL-6 and […] (10 ng/ml; 401-ML-025; R&D Systems) or TGF-β1 and IL-21 (100 ng/ml; 594-ML-010; R&D Systems) were used in instead for Th17 cell differentiation. IL-12 (30 ng/ml; 419-ML-010; […] C17.8; Biolegend) were used for the generation of Th1 cells. IL-4 (30 ng/ml; 404-ML-010; R&D Systems) and anti-IFN-γ (5 μg/ml; XMG1.2; Biolegend) was added for the generation of Th2 cells. TGF-β1 (15 ng/ml; 130-095-067; Miltenyi Biotec) was used for the generation of Foxp3+ Tregs.

human Th1 cells = test: In vitro human Th1 differentiation; type: cell-based; details: 500 ng/ml; IL-12
Experimental: (§1) In vitro human T cell differentiation. For Th17 differentiation, naive CD45RA+ CD4+ T cells were isolated from PBMCs with magnetic beads (Naive Human CD4+ T Cell Isolation Kit II, Miltenyi Biotec) and seeded at a density of 5×10^5 cells/ml in 24-well plates coated with anti-CD3 and (2 μg/ml) and soluble anti-CD28 and cultured in the presence of the following cytokines IL-1β (25 ng/ml), IL-6 (50 ng/ml), and TGF-β1 (2 ng/ml) and neutralizing antibodies to IFN-g ([…]) and IL-4 (10 microgram/ml). Alternatively, Th17 cells were differentiated by using IL-1β (25 ng/ml), IL-6 (50 ng/ml), and IL-23 (50 ng/ml) and neutralizing antibodies to IFN-g ([…]) and IL-4 (10 microgram/ml). For Th1 differentiation naïve CD4+T cells are cultured in the presence of IL-12 (20 ng/ml) and anti-IL-4 (10 μg/ml).

[4] = test system: human CD4+ T cells activated under Th17 polarizing conditions; test: In vitro human Th17 differentiation; type: cell-based; details: 500 ng/ml
Experimental: as §1
Secreted cytokines were measured in tissue culture supernatants after 72-96 hs by enzyme-linked immunosorbent assay as previously described (Farez et al., 2009).

Erk1/2 = test: Signal transduction profiling using reverse protein arrays; type: cell-based, mouse; details: T cells; MTNR1A-dependent
Experimental: Cells activated under polarizing conditions were treated with vehicle (DMSO 0.001%), melatonin (2-10 ng/mL), agomelatine (2-10 ng/mL) and CGP-52608 (2-10 ng/mL) during 72-96 hs and lysed. Lysates were transferred to 384-well polypropylene plates and were spotted onto Super Epoxi slides (Telechem) with a robotic microarrayer (Genetix) fitted with solid spotting pins.

2D2+ transgenic T cells = test: In vitro activation of naive 2D2+ transgenic T cells / CD4+ T cells (MOG35-55 and DCs or anti-CD3 and anti-CD28); type: cell-based, mice
CD4+ T cells [5] = test: Flow cytometry of T cell subsets from spleen, lymph nodes and CNS of EAE mice; type: in vivo, C57BL/6 wild-type mice; details: melatonin 5 mg/kg daily
Experimental: For intracellular cytokine staining, cells were stimulated for 4 h at 37° C. with phorbol 12-myristate 13-acetate (50 ng/ml; Sigma), ionomycin (1 μg/ml; Sigma) and monensin (GolgiStop; 1 μg/ml; BD Biosciences). After being stained for surface markers, cells were fixed and made permeable according to the manufacturer's instructions (BD Biosciences). All antibodies against cytokines were from Biolegend. All experiments were started at the same time (8-9 am). Data were collected with a LSR II or FACSAria (BD Biosciences), then were analyzed with FlowJo software (Treestar). CNS infiltrates were isolated as described (Mascanfroni et al., 2013). Mice were perfused with ice-cold PBS. The brain and spinal cord were removed and incubated in PBS containing collagenase type III (2 mg/ml; Worthington) and DNase (20 units/ml; Sigma-Aldrich). Tissues were then homogenized and loaded on a 30%-37%-70% Percoll gradient for enrichment of CNS infiltrates. Based on our epidemiological findings, we studied the effects of melatonin on CNS inflammation using the experimental autoimmune […] (EAE) model of MS. Naïve C57BL/6 wild-type mice were immunized with MOG35-55 and treated daily with melatonin (5 mg/kg, intraperitoneally) or vehicle. Melatonin administration ameliorated EAE clinical symptoms (FIG. 2a, Table 2 and FIG. 7a).

Compound: COc1ccc2[nH]cc(CCNC(C)=O)c2c1 [Melatonin, N-Acetyl-5-methoxytryptamine]
- EAE clinical symptoms [1]: ameliorated
- Mean onset day (mean ± sd) [1]: 11.8 ± 3.0 days
- Mortality [1]: 0/24
- Mean maximum score (mean ± sd) ([1]; **P < 0.05): 2.06 ± 0.8**
- Incidence (%) ([1]; *P = 0.05): 65%
- Incidence (animals) ([1]; *P = 0.05): 17/24
- IL-10 production (CD4+ T cells [2]): increased
- proliferation and IL-17 secretion (CD4+ T cells [2]): decreased
- differentiation of FoxP3+ iTregs, Th1 or Th2 cells [3]: no effects
- differentiation of human Th1 cells (human Th1 cells): no effect
- production of IL-17, RORC and IL17A expression [4]: reduced
- IL10 expression ([4]; Th17 polarizing conditions): increased
- activation of Erk1/2 (Erk1/2): increase
- ability of melatonin-pretreated DCs to activate 2D2+ T cells (2D2+ transgenic T cells; in the presence of MOG35-55): did not affect
- apoptosis in CD4+ T cells (annexin V and propidium iodide staining, Bcl-xl levels) (2D2+ transgenic T cells; stimulated with antibodies against CD3 and CD28, 3 days): did not increase
- in vitro activation of naive 2D2+ transgenic T cells (2D2+ transgenic T cells; with MOG35-55 and DCs or with antibodies to CD3 and CD28 in the absence of DCs): suppressed
- IL-10 secreting CD4+ T cells (CD4+ T cells [5]): increase
- number and frequency of Th17 cells in spleen, lymph nodes and CNS (CD4+ T cells [5]): decreased number and frequency
- number or frequency of other T cell subsets, B cells, γδ T cells or innate lymphoid cells (ILCs) (CD4+ T cells [5]): no significant changes
